Measurements taken from US10028992B2, “Methods of treating muscular dystrophy” (BOARD OF REGENTS OF THE NEVADA SYSTEM OF HIGHER EDUCATION …, priority 2012, dated 2018).
Where two headings read alike, the source gives them in different places.

System: α7 integrin promoter
Test: muscle cell-based assay: α7βgal+/− myoblasts/myotubes, LacZ reporter, β-galactosidase cleavage of FDG
Design: species or system mouse
Details: for AC50 / EC50: Mus musculus; for AC50 / Fit Log AC50: log of AC50, given with negative sign, unit of AC50 not given; for AC50: read-out: Fit Log AC50 (converted); for Fit Infinite Activity [%]: fitted activity at infinite concentration; for EC50: read-out: Fit LogAC50 (converted)
Method: An α7 integrin null mouse was produced in which exon 1 of the gene encoding the α7 integrin was replaced by the LacZ reporter. In these mice, all the transcriptional regulatory elements of the α7 integrin promoter were retained, allowing β-galactosidase to report expression of 7 integrin. A primary myoblast cell line (designated α7βgal^+/−) isolated from 10 day old α7^+/− pups were analyzed for the ability of β-galactosidase to report α7 integrin expression. α7βgal^+/− myoblasts were differentiated and subjected to X-gal staining and western analysis (FIGS. 1A and 1B).
The activity of the α7 integrin promoter was measured by β-galactosidase cleavage of the non-fluorescent compound fluorescein di-β-D-galactopyranoside (FDG) to fluorescein. This assay was used to screen compound libraries to identify molecules that up-regulate α7 integrin expression in muscle.
Also evaluated was the effect of various isoforms of laminin and the ligand for α7β1 integrin on integrin expression. Positive hits were subjected to dose-response analysis, western analysis and a myostatin counterscreen (a negative regulator of muscle growth).

[1] = Table 12, fitted activity at zero concentration
[2] = Table 12 Compound data, concentration-response curve fit
[3] = given as log AC50 (negative values)
[4] = curve class number, key not given
[5] = curve fit, activity at zero concentration

| Compound | AC50 (Table 12) [µM] | Fit HillSlope (Table 12, curve fit) | Fit Zero Activity [%] [1] [%] | Fit Curve Class (Table 12, key not given) | Score [2] | EC50 [3] [µM] | Score (Table 12 compound data) | Fit Curve Class [4] | Fit HillSlope (curve fit) | Fit Zero Activity [%] [5] [%] | also measured |
| --- | --- | --- | --- | --- | --- | --- | --- | --- | --- | --- | --- |
| COc1ccc(N(CC(=O)NCCC(C)C)C(=O)c2snc(C(=O)NC3CCCCC3)c2N)c(OC)c1 [Compound 98] | 10 | 4.5045 | −0.0479 | 2.1 | 43 | – | – | – | – | – | – |
| CC1(C)CC(O)=C/C(=N\c2ccc(C(=O)O)c(O)c2)C1 [Compound 99] | 10 | 2.1211 | 0 | 2.1 | 43 | – | – | – | – | – | – |
| COC(=O)c1ccccc1NC(=O)c1cc[n+]([O-])cc1 [Compound 100] | 3.98 | 1.01 | −31.5116 | 2.1 | 43 | – | – | – | – | – | – |
| CN(C)C1(C/N=C/c2cc(Cl)cc([N+](=O)[O-])c2O)CCCCC1 [Compound 101] | – | 1.6604 | −15.8708 | 2.1 | 43 | – | – | – | – | – | Fit Infinite Activity [%] (Table 12): 115.659%; Fit Log AC50 (Table 12): −5.05 |
| CS(=O)(=O)Cc1cccc(C(=O)NN(c2ccccc2)c2ccccc2)c1 [Compound 102] | 12.6 | 4.5045 | 10.4042 | 2.1 | 43 | – | – | – | – | – | – |
| COc1ccccc1CNS(=O)(=O)c1ccc(Cl)s1 [Compound 103] | 6.31 | 1.8265 | −23.0045 | 2.1 | 43 | – | – | – | – | – | – |
| O=C(NCCc1ccccc1)C1CCC(=O)N1C1CCCC1 (stereo not drawn) [Compound 104] | 10 | 3.6772 | −9.1182 | 2.1 | 43 | – | – | – | – | – | – |
| NS(=O)(=O)c1ccc(NC(=O)c2cc(-c3ccccc3O)[nH]n2)cc1 [Compound 105] | 10 | 3.5117 | 16.8467 | 2.1 | 43 | – | – | – | – | – | – |
| Fc1ccc(-c2ccnn2-c2ccccc2)cc1 [Compound 107] | 4.47 | 1.4781 | −19.2206 | 2.1 | 43 | – | – | – | – | – | – |
| O=C(Nc1cc(Br)ccc1O)C1CC(c2ccccc2Cl)=NO1 (stereo not drawn) [Compound 108] | 12.6 | 4.5045 | 2.0834 | 2.1 | 43 | – | – | – | – | – | – |
| COc1ccc2oc(C[S+]([O-])c3ccccc3)c(C(=O)O)c2c1 (stereo not drawn) [Compound 109] | 12.6 | 4.9549 | 7.5839 | 2.1 | 43 | – | – | – | – | – | – |
| CCCCS(=O)(=O)N1CCCC(C(=O)NCCc2ccccc2)C1 (stereo not drawn) [Compound 111] | 7.08 | 1.21 | 2.2101 | 2.1 | 43 | – | – | – | – | – | – |
| O=[N+]([O-])c1ccc(Cl)cc1N/N=C/c1ccncc1 [Compound 112] | – | 3.132 | 0.1229 | 2.2 | 43 | – | – | – | – | – | Fit Infinite Activity [%] (Table 12): 74.0416%; Fit Log AC50 (Table 12): −5.25 |
| NC(=O)c1cccnc1Oc1ccc(Cl)cc1Cl [Compound 113] | 10 | 3.9295 | −5.8907 | 2.1 | 43 | – | – | – | – | – | – |
| Cc1ccc(NC(=O)C2CCCCC2C(=O)O)cc1C (stereo not drawn) [Compound 114] | 11.2 | 4.5045 | −3.8223 | 2.1 | 43 | – | – | – | – | – | – |
| CCOc1ccc2oc(C(=O)OCC(=O)NC(=O)NC)c(C)c2c1 [Compound 115] | 7.08 | 1.8265 | −4.8829 | 2.2 | 43 | – | – | – | – | – | – |
| CN(C)S(=O)(=O)c1ccc(C(=O)Nc2nc3ccccc3[nH]2)cc1 [Compound 116] | 8.91 | 1.5579 | −9.8246 | 2.1 | 43 | – | – | – | – | – | – |
| NC1=Nc2cccc3cccc1c23 [Compound 117] | 7.94 | 1.6604 | −0.2202 | 2.1 | 43 | – | – | – | – | – | – |
| C/N=c1\scc(-c2ccc(OC)cc2)n1/N=C(\C)c1cccnc1 [Compound 118] | 5.01 | 1.6924 | −7.9176 | 2.2 | 43 | – | – | – | – | – | – |

| Compound | AC50 (Table 12) [µM] | Fit HillSlope (Table 12, curve fit) | Fit Zero Activity [%] [1] [%] | Fit Curve Class (Table 12, key not given) | Score [2] | EC50 [3] [µM] | Score (Table 12 compound data) | Fit Curve Class [4] | Fit HillSlope (curve fit) | Fit Zero Activity [%] [5] [%] | also measured |
| --- | --- | --- | --- | --- | --- | --- | --- | --- | --- | --- | --- |
| O=C(COC(=O)Cn1cnc2ccccc21)Nc1cccc([N+](=O)[O-])c1 [Compound 119] | 11.2 | 4.9549 | −16.0213 | 2.1 | 43 | – | – | – | – | – | – |
| Cc1ccc(CNc2ncnc(N)c2[N+](=O)[O-])cc1 [Compound 120] | 10 | 0.8 | 11.933 | 2.1 | 43 | – | – | – | – | – | – |
| CN(C)/C=N/c1nccc(-c2cccs2)n1 [Compound 121] | 8.91 | 1.8851 | 5.7133 | 2.1 | 43 | – | – | – | – | – | – |
| Cc1cc(N2CCOCC2)nc2ccc(N/C(S)=N/Cc3ccc4c(c3)OCO4)cc12 [Compound 122] | 10 | 1.2475 | 0.5248 | 2.1 | 43 | – | – | – | – | – | – |
| COCCN1C=C(C(=O)OC)C(c2ccccc2Cl)C(C(=O)OC)=C1 [Compound 123] | – | – | – | – | – | 8.91 | 43 | 2.1 | 1.3443 | 3.9836 | – |
| O=C(NCCCn1ccnc1)/C(=C/c1cccs1)NC(=O)c1ccco1 [Compound 124] | – | – | – | – | – | 8.91 | 43 | 2.1 | 1.2475 | −20.4393 | – |
| N=C(NOC(=O)COc1cc(Cl)c(Cl)cc1Cl)c1ccncc1 [Compound 125] | – | – | – | – | – | 11.2 | 43 | 2.1 | 1.1705 | −2.6906 | – |
| Cc1ccc(-c2csc(Nc3ccc(C(=O)O)cc3)[n+]2Cc2ccccc2)cc1.[Br-] [Compound 126] | – | – | – | – | – | 8.91 | 43 | 2.1 | 1 | 0.673 | – |
| Cc1cc(-c2ccccc2)n2nc(N)nc2n1 [Compound 127] | – | – | – | – | – | 12.6 | 43 | 2.1 | 4.5045 | −18.9102 | – |
| O=C(N/N=C/c1cn[nH]c1-c1ccc(F)cc1)c1ccncc1 [Compound 128] | – | – | – | – | – | 14.1 | 43 | 2.1 | 4.5045 | 14.6735 | – |
| CC(/C=C(\O)c1ccccc1)=N\c1ccc(Br)c(Cl)c1 [Compound 130] | – | – | – | – | – | 11.2 | 43 | 2.1 | 4.5045 | 7.8122 | – |
| Cc1ccc(NC(=O)COc2ccccc2CNC(C)(C)CC(C)(C)C)cc1 [Compound 131] | – | – | – | – | – | 14.1 | 43 | 2.1 | 4.9549 | 8.7591 | – |
| Cc1nc2c([nH]1)OC(N)=C(C#N)C21CCN(Cc2ccccc2)CC1 [Compound 132] | – | – | – | – | – | – | – | – | – | – | Fit Curve Class: 2.1; Fit HillSlope: 4.9549; Fit Zero Activity [%]: 12.8108%; Score: 43; EC50: 12.6 µM |
| O=C(CSc1nnc(C2CC2)n1C1CC1)c1cccs1 [Compound 133] | – | – | – | – | – | 10 | 42 | 2.1 | 2.7202 | −27.5656 | – |
| CSc1ncccc1C(=O)OCC(=O)c1cc(C)n(C)c1C [Compound 134] | – | – | – | – | – | 10 | 42 | 2.1 | 4.4495 | −22.5632 | – |
| CCc1c(C2(O)CCCCC2)[nH]c2ncccc12 [Compound 135] | – | – | – | – | – | 10 | 42 | 2.1 | 4.9549 | −29.3022 | – |
| O=C(Nc1ccc(S(=O)(=O)Nc2nccs2)cc1)c1ccccc1OC(F)F [Compound 137] | – | – | – | – | – | 10 | 42 | 2.1 | 4.9549 | −19.2861 | – |
| O=C1CCc2cc(S(=O)(=O)Nc3ccc(C(F)(F)F)cc3)cc3c2N1CC3 [Compound 138] | – | – | – | – | – | 11.2 | 42 | 2.1 | 1.3437 | −27.3652 | – |
| COc1ccccc1C(=O)NCC(=O)/N=N/c1c(O)n(C(C)C)c2ccccc12 [Compound 139] | – | – | – | – | – | 11.2 | 42 | 2.1 | 4.5045 | 14.712 | – |
